Measurements published in ChEMBL document CHEMBL5042479, “Synthesis and Characterization of New V1A Antagonist Compounds: The Separation of Four Atropisomeric Stereoisomers” (J Med Chem, 2021).
In brackets after ≈: the same amount, converted by molar mass.

How the values were obtained:
[1] = Permeability directional ratio in mouse Caco-2 cells; conditions: human
physchem = conditions: PBS, pH 7.4
Description: Kinetic solubility of compound in PBS at pH 7.4 incubated for 2 hrs by HPLC-MS analysis

[2] = Intrinsic clearance in rat liver microsomes in presence of reduced NADPH
[3] = Intrinsic clearance in mouse liver microsomes in presence of reduced NADPH
Vasopressin V2 receptor [4] = target: T1, Vasopressin V2 receptor (Homo sapiens, UniProt P30518); experiment: Displacement of [3H]-arginine-vasopressin from human V2 receptor expressed in human 1321N1 cell membranes incubated for 60 mins by radioligand binding assay; set-up: species or system Membrane
T1 sequence (P30518 whole entry): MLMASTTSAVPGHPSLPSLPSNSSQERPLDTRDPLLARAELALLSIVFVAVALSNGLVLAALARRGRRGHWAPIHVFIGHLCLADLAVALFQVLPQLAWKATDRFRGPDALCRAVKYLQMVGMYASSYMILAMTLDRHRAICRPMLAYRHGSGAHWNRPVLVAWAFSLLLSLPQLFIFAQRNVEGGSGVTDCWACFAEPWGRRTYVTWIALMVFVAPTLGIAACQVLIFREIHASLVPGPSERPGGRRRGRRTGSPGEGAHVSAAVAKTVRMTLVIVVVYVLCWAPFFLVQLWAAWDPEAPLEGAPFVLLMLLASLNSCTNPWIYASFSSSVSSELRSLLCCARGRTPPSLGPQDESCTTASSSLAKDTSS

[5] = Intrinsic clearance in human liver microsomes in presence of reduced NADPH
1321N1 = experiment: Selectivity ratio of Ki for human V2 receptor expressed in human 1321N1 cell membranes to Ki for human V1A receptor expressed in human 1321N1 cell membranes; type: cell-based
[6] = Apparent permeability across apical to basolateral side in mouse Caco-2 cells; conditions: human
Vasopressin V2 receptor [7] = target: T1, Vasopressin V2 receptor; experiment: Displacement of [3H]-labelled arginine-vasopressin from human V2 receptor expressed in human 1321N1 cell membranes at 1 uM incubated for 60 mins by radioligand binding assay; conditions: Membrane
Vasopressin V1a receptor [8] = target: T2, Vasopressin V1a receptor (Homo sapiens, UniProt P37288); experiment: Displacement of [3H]-arginine-vasopressin from human V1A receptor expressed in human 1321N1 cell membranes incubated for 60 mins by radioligand binding assay; set-up: species or system Membrane
Target sequence in this assay (P37288 whole entry): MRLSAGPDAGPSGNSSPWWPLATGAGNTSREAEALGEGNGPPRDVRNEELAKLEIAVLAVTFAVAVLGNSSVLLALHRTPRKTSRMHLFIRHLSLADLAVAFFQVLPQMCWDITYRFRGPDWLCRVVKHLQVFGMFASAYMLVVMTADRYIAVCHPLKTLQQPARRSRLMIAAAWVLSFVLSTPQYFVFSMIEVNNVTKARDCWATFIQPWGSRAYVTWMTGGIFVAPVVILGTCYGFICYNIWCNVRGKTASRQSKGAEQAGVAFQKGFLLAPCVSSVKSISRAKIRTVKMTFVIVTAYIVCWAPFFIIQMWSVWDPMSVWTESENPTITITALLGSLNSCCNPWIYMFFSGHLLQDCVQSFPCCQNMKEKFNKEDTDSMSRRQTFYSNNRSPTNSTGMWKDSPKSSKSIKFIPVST

Vasopressin V1a receptor [9] = target: T2, Vasopressin V1a receptor; experiment: Displacement of [3H]-labelled arginine-vasopressin from human V1A receptor expressed in human 1321N1 cell membranes at 5 nM incubated for 60 mins by radioligand binding assay; conditions: Membrane
Target sequence in this assay (P37288 whole entry, looked up): as the sequence (P37288 whole entry) above

Vasopressin V1a receptor [10] = target: T2, Vasopressin V1a receptor; experiment: Inhibition of human V1A receptor expressed in human 1321N1 cells assessed as calcium mobilization by fluorescent plate reader; type: functional, cell-based
Target sequence in this assay (P37288 whole entry): as above

Compound `O[C@H]1Cc2cc(Cl)ccc2-n2c(nnc2[C@H]2CC[C@H](Oc3ccccn3)CC2)C1` has an efflux ratio [1] of 4.7, a solubility kinetic at 2 h (physchem) of 98.9 µM (≈ 40.6 µg/mL) and a microsomal CLint [2] of 56.2 µL/min/mg. It also gave a microsomal CLint [3] of 6.7 µL/min/mg, a Ki (Vasopressin V2 receptor [4]) of 900 nM and a microsomal CLint [5] of 4.1 µL/min/mg. For the same compound, the Selectivity ratio (1321N1) was 3000 and the Papp A→B [6] was 20.5 ×10⁻⁶ cm/s.

`Cc1cccc2c1-n1c(nnc1[C@H]1CC[C@H](Oc3ccccn3)CC1)C[C@H](O)C2` (atropisomer aS) [listing 1 of 2 here] gave an inhibition (Vasopressin V2 receptor [7]) of -5%.

For `Cc1cccc2c1-n1c(nnc1[C@H]1CC[C@H](Oc3ccccn3)CC1)C[C@@H](O)C2` (atropisomer aR) [listing 1 of 2 here], the inhibition (Vasopressin V2 receptor [7]) was -6%.

`Cc1cccc2c1-n1c(nnc1[C@H]1CC[C@H](Oc3ccccn3)CC1)C[C@H](O)C2` (atropisomer aR) [listing 1 of 2 here] showed an inhibition (Vasopressin V2 receptor [7]) of -3%.

With `Cc1cccc2c1-n1c(nnc1[C@H]1CC[C@H](Oc3ccccn3)CC1)C[C@@H](O)C2` (atropisomer aS) [listing 1 of 2 here] the inhibition (Vasopressin V2 receptor [7]) was 0%.

For `Cc1cccc2c1CC(O)Cc1nnc([C@H]3CC[C@H](Oc4ccccn4)CC3)n1-2` (stereo partly specified), the inhibition (Vasopressin V2 receptor [7]) was -9% and the Ki (Vasopressin V1a receptor [8]) was 8.8 nM.

With `OC1Cc2ccc(Cl)cc2-n2c(nnc2[C@H]2CC[C@H](Oc3ccccn3)CC2)C1` (stereo partly specified) the inhibition (Vasopressin V1a receptor [9]) was 26%.

`CN1Cc2cc(Cl)ccc2-n2c(nnc2C2CCN(c3ccccn3)CC2)C1` showed an inhibition (Vasopressin V2 receptor [7]) of 13%.

`Cc1cccc2c1-n1c(nnc1[C@H]1CC[C@H](Oc3ccccn3)CC1)C[C@@H](O)C2` (atropisomer aS) [listing 2 of 2 here] gave a Ki (Vasopressin V1a receptor [8]) of 2640 nM.

For `OC1Cc2cc(Cl)ccc2-n2c(nnc2[C@H]2CC[C@H](Oc3ccccn3)CC2)C1` (stereo partly specified), the efflux ratio [1] was 6.2, the solubility kinetic at 2 h (physchem) was 97.5 µM (≈ 40.1 µg/mL) and the microsomal CLint [2] was 38 µL/min/mg. It also gave a microsomal CLint [3] of 6.3 µL/min/mg, a microsomal CLint [5] of 0.4 µL/min/mg and a Selectivity ratio (1321N1) of 1570. It also gave a Papp A→B [6] of 20.3 ×10⁻⁶ cm/s.

Work on `CN(C)CCn1cc(C(=O)N2CCC3(CC2)OCc2ccccc23)c2ccc(Cl)cc21` yielded an inhibition (Vasopressin V2 receptor [7]) of -6%.

`Cc1ccc2c(c1)CC(O)Cc1nnc([C@H]3CC[C@H](Oc4ccccn4)CC3)n1-2` (stereo partly specified) showed an IC50 (Vasopressin V1a receptor [10]) of 1.9 nM, a Ki (Vasopressin V2 receptor [4]) of 1070 nM and a Ki (Vasopressin V1a receptor [8]) of 0.4 nM.

`OC1Cc2c(Cl)cccc2-n2c(nnc2[C@H]2CC[C@H](Oc3ccccn3)CC2)C1` (stereo partly specified) showed a Ki (Vasopressin V1a receptor [8]) of 12 nM.

`Cc1cccc2c1-n1c(nnc1[C@H]1CC[C@H](Oc3ccccn3)CC1)C[C@H](O)C2` (atropisomer aR) [listing 2 of 2 here] showed a Ki (Vasopressin V1a receptor [8]) of 11 nM.

For `Cc1ccc2c(c1)-n1c(nnc1[C@H]1CC[C@H](Oc3ccccn3)CC1)CC(O)C2` (stereo partly specified), the inhibition (Vasopressin V2 receptor [7]) was 3%, the IC50 (Vasopressin V1a receptor [10]) was 390 nM and the Ki (Vasopressin V1a receptor [8]) was 34 nM.

With `Clc1ccc2c(c1)CCCc1nnc([C@H]3CC[C@H](Oc4ccccn4)CC3)n1-2` the CLH [2] was 124 µL/min/mg, the CLH [3] was 94 µL/min/mg and the CLH [5] was 7 µL/min/mg.

In the case of `Cc1cccc2c1-n1c(nnc1[C@H]1CC[C@H](Oc3ccccn3)CC1)C[C@H](O)C2` (atropisomer aS) [listing 2 of 2 here], the Ki (Vasopressin V1a receptor [8]) is reported as 146 nM.

For `Cc1cccc2c1-n1c(nnc1[C@H]1CC[C@H](Oc3ccccn3)CC1)C[C@@H](O)C2` (atropisomer aR) [listing 2 of 2 here], the Ki (Vasopressin V1a receptor [8]) was 6.3 nM.

For `O[C@@H]1Cc2cc(Cl)ccc2-n2c(nnc2[C@H]2CC[C@H](Oc3ccccn3)CC2)C1`, the efflux ratio [1] was 3.7, the solubility kinetic at 2 h (physchem) was 95.1 µM (≈ 39.1 µg/mL) and the microsomal CLint [2] was 16.6 µL/min/mg. The microsomal CLint [3] was 5.1 µL/min/mg, the Ki (Vasopressin V2 receptor [4]) was 200 nM and the microsomal CLint [5] was 3.2 µL/min/mg. For the same compound, the Selectivity ratio (1321N1) was 667 and the Papp A→B [6] was 22.5 ×10⁻⁶ cm/s.
